Key:
Experiment in all cases: Test D controlled growth environment herbicide test, pre- and postemergence
Format in all cases: in vivo
[1] = system: lambsquarters (Chenopodium album)
In short: (§1)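 Species sown in silt loam and sprayed preemergence, or grown in peat-based medium to 2–18 cm (1- to 4-leaf stage) and sprayed postemergence, with compounds in non-phytotoxic solvent plus surfactant. Visual injury scored versus controls after 14–21 d in a controlled environment, 0 (no effect) to 100 (complete control).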

[2] = system: field poppy (Papaver rhoeas)
In short: as §1

[3] = system: blackgrass (Alopecurus myosuroides)
In short: as §1

[4] = system: bluegrass (annual bluegrass, Poa annua)
In short: as §1

[5] = system: wheat, winter (winter wheat, Triticum aestivum)
In short: as §1

[6] = system: wheat, spring (spring wheat, Triticum aestivum)
In short: as §1

[7] = system: mustard, wild (wild mustard, Sinapis arvensis)
In short: as §1

[8] = system: chamomile (scentless chamomile, Matricaria inodora)
In short: as §1

[9] = system: foxtail, green (green foxtail, Setaria viridis)
In short: as §1

[10] = system: ryegrass, Italian (Italian ryegrass, Lolium multiflorum)
In short: as §1

[11] = system: oilseed rape (Brassica napus)
In short: as §1

[12] = system: speedwell (bird's-eye speedwell, Veronica persica)
In short: as §1

[13] = system: barley, spring (spring barley, Hordeum vulgare)
In short: as §1

[14] = Postemergence, 31 g ai/ha, scale 0 to 100 (0 no effect, 100 complete control)
[15] = Postemergence, 125 g ai/ha, visual rating on scale 0 (no effect) to 100 (complete control), 14 to 21 d
[16] = Postemergence, 250 g ai/ha, scale 0 to 100 (0 no effect, 100 complete control)
[17] = Preemergence, 62 g ai/ha, scale 0 to 100 (0 no effect, 100 complete control)
[18] = Preemergence, 125 g ai/ha, scale 0 to 100 (0 no effect, 100 complete control)
[19] = Preemergence, 250 g ai/ha, scale 0 to 100 (0 no effect, 100 complete control)
[20] = postemergence, 62 g ai/ha, scale 0 to 100, 0 no effect, 100 complete control

SMILES: Cc1ccc2ccccc2c1-c1c(O)c(C)nn(C)c1=O [Compound 59]
- Lambsquarters plant response rating [1, 14]: 90
- Plant response rating, Lambsquarters [1, 15]: 90
- Plant response rating, Lambsquarters [1, 16]: 95
- Plant response rating (scale of 0 to 100), Lambsquarters ([1]; Preemergence, 31 g ai/ha): 95
- Plant response rating, Lambsquarters [1, 17]: 100
- Plant response rating, Lambsquarters [1, 18]: 100
- Plant response rating, Lambsquarters [1, 19]: 100
- Plant response rating, Lambsquarters [1, 20]: 85
- Field Poppy plant response rating [2, 14]: 70
- Plant response rating, Field Poppy [2, 15]: 95
- Plant response rating, Field Poppy [2, 16]: 100
- Plant response rating (scale of 0 to 100), Field Poppy ([2]; Preemergence, 31 g ai/ha): 100
- Plant response rating, Field Poppy [2, 17]: 100
- Plant response rating, Field Poppy [2, 18]: 100
- Plant response rating, Field Poppy [2, 19]: 100
- Plant response rating, Field Poppy [2, 20]: 75
- Blackgrass plant response rating [3, 14]: 70
- Plant response rating, Blackgrass [3, 15]: 85
- Plant response rating, Blackgrass [3, 16]: 85
- Plant response rating (scale of 0 to 100), Blackgrass ([3]; Preemergence, 31 g ai/ha): 85
- Plant response rating, Blackgrass [3, 17]: 90
- Plant response rating, Blackgrass [3, 18]: 95
- Plant response rating, Blackgrass [3, 19]: 100
- Plant response rating, Blackgrass [3, 20]: 80
- Bluegrass plant response rating [4, 14]: 25
- Plant response rating, Bluegrass [4, 15]: 55
- Plant response rating, Bluegrass [4, 16]: 75
- Plant response rating (scale of 0 to 100), Bluegrass ([4]; Preemergence, 31 g ai/ha): 30
- Plant response rating, Bluegrass [4, 17]: 50
- Plant response rating, Bluegrass [4, 18]: 75
- Plant response rating, Bluegrass [4, 19]: 80
- Plant response rating, Bluegrass [4, 20]: 40
- Wheat, Winter plant response rating [5, 14]: 35
- Plant response rating, Wheat, Winter [5, 15]: 55
- Plant response rating, Wheat, Winter [5, 16]: 80
- Plant response rating (scale of 0 to 100), Wheat, Winter ([5]; Preemergence, 31 g ai/ha): 10
- Plant response rating, Wheat, Winter [5, 17]: 35
- Plant response rating, Wheat, Winter [5, 18]: 70
- Plant response rating, Wheat, Winter [5, 19]: 80
- Plant response rating, Wheat, Winter [5, 20]: 40
- Wheat, Spring plant response rating [6, 14]: 40
- Plant response rating, Wheat, Spring [6, 15]: 70
- Plant response rating, Wheat, Spring [6, 16]: 80
- Plant response rating (scale of 0 to 100), Wheat, Spring ([6]; Preemergence, 31 g ai/ha): 35
- Plant response rating, Wheat, Spring [6, 17]: 65
- Plant response rating, Wheat, Spring [6, 18]: 80
- Plant response rating, Wheat, Spring [6, 19]: 85
- Plant response rating, Wheat, Spring [6, 20]: 45
- Mustard, Wild plant response rating [7, 14]: 90
- Plant response rating, Mustard, Wild [7, 15]: 100
- Plant response rating, Mustard, Wild [7, 16]: 100
- Plant response rating (scale of 0 to 100), Mustard, Wild ([7]; Preemergence, 31 g ai/ha): 95
- Plant response rating, Mustard, Wild [7, 17]: 95
- Plant response rating, Mustard, Wild [7, 18]: 100
- Plant response rating, Mustard, Wild [7, 19]: 100
- Plant response rating, Mustard, Wild [7, 20]: 100
- Chamomile plant response rating [8, 14]: 80
- Plant response rating, Chamomile [8, 15]: 85
- Plant response rating, Chamomile [8, 16]: 100
- Plant response rating (scale of 0 to 100), Chamomile ([8]; Preemergence, 31 g ai/ha): 100
- Plant response rating, Chamomile [8, 17]: 95
- Plant response rating, Chamomile [8, 18]: 100
- Plant response rating, Chamomile [8, 19]: 100
- Plant response rating, Chamomile [8, 20]: 80
- Foxtail, Green plant response rating [9, 14]: 65
- Plant response rating, Foxtail, Green [9, 15]: 75
- Plant response rating, Foxtail, Green [9, 16]: 85
- Plant response rating (scale of 0 to 100), Foxtail, Green ([9]; Preemergence, 31 g ai/ha): 55
- Plant response rating, Foxtail, Green [9, 17]: 75
- Plant response rating, Foxtail, Green [9, 18]: 85
- Plant response rating, Foxtail, Green [9, 19]: 100
- Plant response rating, Foxtail, Green [9, 20]: 70
- Ryegrass, Italian plant response rating [10, 14]: 80
- Plant response rating, Ryegrass, Italian [10, 15]: 90
- Plant response rating, Ryegrass, Italian [10, 16]: 90
- Plant response rating (scale of 0 to 100), Ryegrass, Italian ([10]; Preemergence, 31 g ai/ha): 100
- Plant response rating, Ryegrass, Italian [10, 17]: 100
- Plant response rating, Ryegrass, Italian [10, 18]: 100
- Plant response rating, Ryegrass, Italian [10, 19]: 100
- Plant response rating, Ryegrass, Italian [10, 20]: 90
- Oilseed Rape plant response rating [11, 14]: 60
- Plant response rating, Oilseed Rape [11, 15]: 85
- Plant response rating, Oilseed Rape [11, 16]: 90
- Plant response rating (scale of 0 to 100), Oilseed Rape ([11]; Preemergence, 31 g ai/ha): 20
- Plant response rating, Oilseed Rape [11, 17]: 30
- Plant response rating, Oilseed Rape [11, 18]: 50
- Plant response rating, Oilseed Rape [11, 19]: 80
- Plant response rating, Oilseed Rape [11, 20]: 70
- Speedwell plant response rating [12, 14]: 65
- Plant response rating, Speedwell [12, 15]: 100
- Plant response rating, Speedwell [12, 16]: 100
- Plant response rating (scale of 0 to 100), Speedwell ([12]; Preemergence, 31 g ai/ha): 100
- Plant response rating, Speedwell [12, 17]: 100
- Plant response rating, Speedwell [12, 18]: 100
- Plant response rating, Speedwell [12, 19]: 100
- Plant response rating, Speedwell [12, 20]: 100
- Barley, Spring plant response rating [13, 14]: 25
- Plant response rating, Barley, Spring [13, 15]: 40
- Plant response rating, Barley, Spring [13, 16]: 60
- Plant response rating (scale of 0 to 100), Barley, Spring ([13]; Preemergence, 31 g ai/ha): 5
- Plant response rating, Barley, Spring [13, 17]: 25
- Plant response rating, Barley, Spring [13, 18]: 40
- Plant response rating, Barley, Spring [13, 19]: 60
- Plant response rating, Barley, Spring [13, 20]: 30

— patent publication US10597388B2, “Pyridazinone herbicides” (FMC CORPORATION, priority 2014, dated 2020)
